Assay results: paper PMC12049818, “Identification of NUV-244 as a PNPLA3 I148M degrading small molecule” (iScience, 2025)

Assays:
[1] = tested on: Huh7 cells expressing PNPLA3 I148M-tagRFP; assay: Lipid droplet dispersion / normalization of lipid droplet morphology in Huh7 PNPLA3 I148M-tagRFP cells; type: cell-based, human
Text: During the HTS we observed that PNPLA3 I148M-tagRFP expression altered the morphology of lipid droplets compared to the Huh7 parental control cells. PNPLA3 I148M-tagRFP expression leads to clustering of large lipid droplets around the nucleus and a reduction of small cytoplasmic lipid droplets, which is reflected by changes (lowering) in the number of lipid droplets scorable by the lipid droplet detection algorithm per cell (Figures 4A and 4B, Video S1). Indeed, a role for PNPLA3 I148M in the regulation of lipid droplet morphology is known.[12]^,[13]^,[15]^,[16]^,[21]^,[33] We speculated that reduction of PNPLA3 I148M-tagRFP on lipid droplets of Huh7 cells should therefore restore lipid droplet morphology back to the WT situation in the parental cell line. For this we analyzed all hits at the retest stage in the primary assay. […]
Images were analyzed using Harmony (Revvity) and MetaXpress software (Molecular Devices, USA) to quantify lipid droplet morphology and PNPLA3 I148M-tagRFP intensity.
Assay plates were evaluated based on Z’ scores (>0.6) and signal-to-background ratio (>12) using Genedata Screener® for HTS and Condoseo modules (Genedata, Switzerland). […] Automated image analysis routines were set up to quantify the number, morphology and intensity of nuclei, lipid droplets and the intensity of PNPLA3 I148M-tagRFP on lipid droplets. […]

PNPLA2 = target: T1, PNPLA2 (Homo sapiens, UniProt Q96AD5); assay: nanoDSF thermal shift, PNPLA2 protein; type: binding; details: ligand 25 μM
T1 sequence (Q96AD5 1-504): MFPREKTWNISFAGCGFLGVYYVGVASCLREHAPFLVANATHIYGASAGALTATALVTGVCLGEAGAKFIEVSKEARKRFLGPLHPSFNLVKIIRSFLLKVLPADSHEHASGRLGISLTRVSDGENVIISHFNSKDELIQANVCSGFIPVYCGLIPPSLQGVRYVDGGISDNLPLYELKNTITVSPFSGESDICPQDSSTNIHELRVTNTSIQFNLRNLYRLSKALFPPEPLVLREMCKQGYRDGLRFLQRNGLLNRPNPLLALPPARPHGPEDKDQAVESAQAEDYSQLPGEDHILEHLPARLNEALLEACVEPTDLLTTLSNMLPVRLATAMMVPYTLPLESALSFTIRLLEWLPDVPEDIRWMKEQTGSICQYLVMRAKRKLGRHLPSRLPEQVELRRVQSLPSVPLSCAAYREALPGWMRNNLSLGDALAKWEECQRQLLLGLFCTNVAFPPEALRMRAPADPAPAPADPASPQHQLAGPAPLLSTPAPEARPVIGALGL
Text: To investigate the mode of action of NUV-244, we evaluated its direct binding to the PNPLA3 I148M protein using nano differential scanning fluorimetry (nanoDSF). In this assay, compounds that bind to a target protein can lead to thermal stabilization, preventing protein denaturation, which is reflected in a shift of the protein melting curve.
Full-length wild-type PNPLA3 (Q9NST1), mutant PNPLA3 (I148M), and PNPLA2 (Q96AD5) were cloned into the pVL1393 vector with an N-terminal Flag-Tag. Proteins were expressed in SF9 cells infected at a multiplicity of infection (MOI) of 1 for 72 hours. Protein purification was performed using a two-step process. The first step involved affinity purification using M2 anti-Flag agarose beads. This was followed by gel filtration chromatography using a Superdex 200 column. Thermal melting experiments were carried out using a Prometheus NT.48 instrument (NanoTemper Technologies). Proteins were prepared in 20 mM Tris-HCl pH 7.4, 100 mM NaCl, 5 % Glycerol, 2 mM DTT and 0.2 mg/mL was used as a final concentration in 50 μL volume. For binding experiments, ligands were added to the mixture at a final concentration of 25 μM, DMSO was used as control. […] The intrinsic protein fluorescence at 330 and 350 nm was recorded. Data were analysed using Prometheus NT.48 software. Thermal shifts (ΔTm) were calculated, and Z-scores greater than 6 indicated robust stabilization. […]

effect on melting curve of PNPLA2 protein (PNPLA2): did not affect the melting curve
SMILES: Cc1cccc(Cc2nc(C)c(C(=O)Nc3cc(O)ccc3Cl)s2)c1 [NUV-244]
appearance of small mobile lipid droplets (time-lapse) ([1]; 5μM for 24h, Huh7 expressing PNPLA3 I148M): partially restore | EC50 ([1]; Homo sapiens, Huh-7, resynthesis, representative curve, Figure 4C, read-out: EC50 [M] Lipid droplet aggregates): 4.84e-07 M
